Eleven compounds from ChEMBL document CHEMBL1201862, “PubChem BioAssay data set” (2004) can be followed below.

Common to all, as to assay: NCI tumour cell line growth inhibition, 48 h
Assay [1] relates to HCT-15.
In assay [2] the test system is PC-3.
Assay [3] has as its system SK-MEL-2.
For assay [4], the system named is A549.
Assay [5] has as its system HCC 2998.
The subject of assay [6] is MDA-N.
Assay [7] relates to 786-0.
The test system of assay [8] is SF-268.
In assay [9] the test system is K562.
The subject of assay [10] is NCI-H23.
Assay [11] deals with UO-31.
Assay [12] has as its system SK-MEL-5.
Assay [13] concerns OVCAR-5.
In assay [14] the test system is RXF 393.
In assay [15] the test system is A498.
The subject of assay [16] is SF-539.
Assay [17] concerns RPMI-8226.
Assay [18] deals with SK-MEL-28.
Assay [19] deals with COLO 205.
In assay [20] the test system is CAKI-1.

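Cells were grown in 96-well plates and exposed to each compound for 48 hours at five concentrations; endpoints were interpolated linearly between bracketing concentrations, or set to the highest concentration if not reached. At the GI50, growth is halved.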 The source made the active and inactive calls. No stated cut-off is given here; in the data, active = GI50 up to about 1.1 µM and inactive = higher.

As for `COC(=O)CCC(NC(=O)C(C)NC(=O)COC1C(O)C(OC(=O)CCNc2c3ccccc3nc3cccc([N+](=O)[O-])c23)OC(OCc2ccccc2)C1NC(C)=O)C(N)=O` (configuration not stated), the GI50 is 3.21 µM in assay [1]; > 10 µM (inactive) in [2]; 1.93 µM (inactive) in [3]; > 10 µM (inactive) in assay [4]; 2.76 µM (inactive) in assay [5]; 2.24 µM (inactive) in assay [6]. The GI50 is 3.56 µM (inactive) in assay [7]; 7.26 µM (inactive) in [8]; 1.91 µM (inactive) in assay [9]; > 10 µM (inactive) in assay [10]; > 10 µM (inactive) in assay [11]; 1.61 µM (inactive) in assay [12]. Also, the GI50 in [13] is > 10 µM (inactive); in [14], 3.05 µM (inactive); in assay [15], > 10 µM (inactive); in assay [16] it was > 10 µM (inactive).
With `COC(=O)c1c(O)ccc2c1c1c(n2Cc2ccc(Cl)cc2Cl)C(=O)c2ccccc2C1`, the GI50 is 42.7 µM in assay [1]; 24.1 µM (inactive) in [2]; 19.7 µM (inactive) in [17]; 60.4 µM (inactive) in assay [3]; 45.2 µM (inactive) in [18]; 41.3 µM (inactive) in assay [4]. Besides, the GI50 in [6] was 52.8 µM (inactive); in assay [7] it was 74.5 µM (inactive); in assay [8], 32.5 µM (inactive); in assay [9] it was 52.1 µM (inactive); in assay [10], 60 µM (inactive); in [11], 97.9 µM (inactive). In addition, the GI50 is 89.5 µM (inactive) in assay [12]; 45.7 µM (inactive) in assay [19]; 31 µM (inactive) in assay [14]; > 100 µM (inactive) in assay [15]; 54.5 µM (inactive) in [16].
On to `Cc1ccc(C)c(COCCOCn2cc(N3CCOCC3)c(=O)[nH]c2=O)c1`, for which the GI50 is above 100 µM in assay [1]; > 100 µM (inactive) in assay [2]; > 100 µM (inactive) in [3]; > 100 µM (inactive) in [18]; > 100 µM (inactive) in assay [4]; > 100 µM (inactive) in assay [5]. The GI50 in [6], in assay [7], in assay [8], in [9], in assay [10] and in assay [11] was > 100 µM (inactive) throughout. Also, the GI50 in [19], in assay [20], in [13], in [14], in [15] and in assay [16] was > 100 µM (inactive) throughout.
As for `C/C(=N\Nc1nc2ccccc2o1)c1ccc2ccccc2n1`, the GI50 in assay [1] is 1.08 µM; in [2] it was 1.83 µM (inactive); in assay [17] it was 2.69 µM (inactive); in assay [3], 1.73 µM (inactive); in [18] it was 3.96 µM (inactive); in [4], 4.2 µM (inactive). Besides, the GI50 in assay [6] is 6.49 µM (inactive); in assay [7] it was 3.68 µM (inactive); in [8] it was 5.06 µM (inactive); in [9] it was 3.67 µM (inactive); in assay [10] it was 8.75 µM (inactive); in assay [11], 2.09 µM (inactive). Moreover, the GI50 is 3.15 µM (inactive) in [12]; 3.85 µM (inactive) in [19]; 1 µM (active) in assay [20]; 2.93 µM (inactive) in assay [13]; 18.5 µM (inactive) in assay [14]; 2.55 µM (inactive) in [15]. Further, the GI50 in assay [16] is 7.36 µM (inactive).
For `CCCC(=O)OCC1(CO)C/C(=C/CC(C(C)C)C(C)C)C(=O)O1` (configuration not stated), the GI50 in assay [1] was above 100 µM; in assay [2], > 100 µM (inactive); in assay [3] it was > 100 µM (inactive); in [18], > 100 µM (inactive); in [4] it was > 100 µM (inactive); in assay [5], > 100 µM (inactive). Moreover, the GI50 in assay [6] was > 100 µM (inactive); in [7], > 100 µM (inactive); in [8], > 100 µM (inactive); in [10] it was > 100 µM (inactive); in assay [11], > 100 µM (inactive); in assay [12], 54.7 µM (inactive). For the same compound, the GI50 in assay [19], in assay [20], in [13], in assay [14] and in [15] was > 100 µM (inactive) each time.
As for `COC(=O)c1cc(C)n(CN(Cc2ccccc2)Cn2nc(C(=O)OC)cc2C)n1`, the GI50 in [1] is above 40.7 µM; in assay [2], > 65.5 µM (inactive); in assay [17] it was > 41 µM (inactive); in assay [3], > 100 µM (inactive); in assay [18] it was > 81.5 µM (inactive); in assay [4], > 100 µM (inactive). In addition, the GI50 in assay [6] was > 92.5 µM (inactive); in assay [7] it was 68.1 µM (inactive); in assay [8] it was > 89.9 µM (inactive); in [9], > 100 µM (inactive); in assay [10], > 100 µM (inactive); in [11] it was > 46.1 µM (inactive). Further, the GI50 was 99.1 µM (inactive) in assay [12]; > 46.9 µM (inactive) in assay [19]; > 69.2 µM (inactive) in assay [20]; > 82.2 µM (inactive) in [13]; > 53.7 µM (inactive) in [14]; > 100 µM (inactive) in assay [15]. Further, the GI50 in [16] was > 45.9 µM (inactive).
Take `Cn1c(=O)c2nc(CCS)[nH]c2n(C)c1=O`: the GI50 is above 100 µM in assay [1]; > 100 µM (inactive) in assay [2]; > 100 µM (inactive) in assay [17]; > 100 µM (inactive) in assay [3]; > 100 µM (inactive) in assay [18]; > 100 µM (inactive) in assay [4]. Further, the GI50 was > 100 µM (inactive) in assay [6]; 51.2 µM (inactive) in [7]; 35.6 µM (inactive) in assay [8]; > 100 µM (inactive) in assay [9]; > 100 µM (inactive) in [10]; > 100 µM (inactive) in assay [11]. The GI50 was > 100 µM (inactive) in [12]; > 100 µM (inactive) in assay [19]; > 100 µM (inactive) in assay [20]; > 100 µM (inactive) in assay [13]; 90.6 µM (inactive) in assay [14]; > 100 µM (inactive) in [15]. Also, in assay [16], the GI50 was 74.8 µM (inactive).
For the compound `CC(C)NC1(C(N)=O)CCN(Cc2ccccc2)CC1`, the GI50 was above 100 µM in assay [1]; > 100 µM (inactive) in assay [2]; > 100 µM (inactive) in assay [17]; > 100 µM (inactive) in assay [3]; > 100 µM (inactive) in [18]; > 100 µM (inactive) in assay [4]. The GI50 in assay [6], in [7], in assay [8], in assay [9], in assay [10] and in [11] was > 100 µM (inactive) in each case. The GI50 in assay [12], in assay [19], in assay [20], in assay [13], in assay [14] and in [15] was > 100 µM (inactive) throughout. The GI50 in [16] was > 100 µM (inactive).
`Clc1c(Cl)c(Cl)c2nn(C3CCCO3)nc2c1Cl` (configuration not stated): the GI50 in assay [2] was 82 µM (inactive); in assay [3] it was 68.1 µM (inactive); in assay [4], 37.4 µM (inactive); in [5] it was 91 µM (inactive); in assay [6], 30.5 µM (inactive); in [7], 70.3 µM (inactive). The GI50 in [8] is 46.6 µM (inactive); in assay [9] it was 40.7 µM (inactive); in assay [10] it was 37.8 µM (inactive); in [12], 25.5 µM (inactive); in [19], 55.6 µM (inactive); in assay [20] it was 80.4 µM (inactive). In addition, the GI50 in assay [13] was > 100 µM (inactive); in [14], > 100 µM (inactive); in assay [15], > 100 µM (inactive); in assay [16], 86.9 µM (inactive).
Take `COc1cc(S(=O)(=O)N/N=C/C=C/c2ccccc2)c(OC)cc1NC(C)=O`: the GI50 in assay [1] is 19.5 µM; in assay [2] it was 77.8 µM (inactive); in assay [17], 19.1 µM (inactive); in [3], 47 µM (inactive); in assay [18], 56.5 µM (inactive); in assay [4], > 100 µM (inactive). The GI50 in assay [6] was 78.9 µM (inactive); in assay [7], 91.8 µM (inactive); in assay [8], 35.4 µM (inactive); in [10] it was 41.8 µM (inactive); in [11], 42.9 µM (inactive); in assay [12], 3.73 µM (inactive). Besides, the GI50 in [19] was 17.7 µM (inactive); in [20], 16 µM (inactive); in assay [13], 38.6 µM (inactive); in assay [14], 21.1 µM (inactive); in assay [15], > 100 µM (inactive); in [16] it was 5.26 µM (inactive).
Regarding `CCOC(=O)C(NNS(=O)(=O)c1ccc(C)cc1)S(=O)(=O)C(F)(F)C(F)(F)C(F)(F)C(F)(F)F` (configuration not stated), the GI50 in assay [1] was above 100 µM; in assay [2] it was > 100 µM (inactive); in [17] it was > 100 µM (inactive); in assay [3] it was > 100 µM (inactive); in [18], > 100 µM (inactive); in [4], > 100 µM (inactive). Also, the GI50 in assay [5], in [6], in assay [7], in assay [8], in assay [9] and in assay [10] was > 100 µM (inactive) in each case. The GI50 in assay [11], in assay [12], in assay [19], in [20], in assay [13] and in assay [15] was > 100 µM (inactive) each time. For the same compound, the GI50 in assay [16] was > 100 µM (inactive).
